Values of other authors as cited in patent US12496345B2, “Method of treating cancer” (Intensity Therapeutics, Inc., priority 2012, dated 2025).

Experiments:
[1] = not given; remark: listed apart in the source
[2] = not given; remark: listed apart in the source

oral absorption (in vivo, po)	Compound	pH of a 1% solution [1]	soluble in water [2]	oral bioavailability (carboplatin alone, highly variable)
not orally absorbed	O=c1[nH]cc(F)c(=O)[nH]1 [5-FU, fluorouracil]			
	N.N.O=C([O-])C1(C(=O)[O-])CCC1.[Pt+2] [Carboplatin, platinum, diammine [1,1-cyclobutane-dicarboxylato (2−)-0,0′]-(SP-4-2)]	5-7	approximately 14 mg/mL	approximately 4%
